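Compound exposure: 48 hours, 5 concentrations, 96-well plates. GI50 = concentration required for 50% inhibition of growth. At the TGI there is no net growth.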
Assays:
Assay in all cases: growth of human tumour cells (NCI), 48 h
[1] = tested on: OVCAR-5 ovarian
[2] = tested on: NCI-H23 lung
[3] = tested on: SF-268 CNS
[4] = tested on: HCC-2998 colon
[5] = tested on: SNB-19 CNS
[6] = tested on: SK-MEL-5 melanoma
[7] = tested on: DU-145 prostate
[8] = tested on: SW-620 colon
[9] = tested on: MALME-3M melanoma
[10] = tested on: UO-31 renal
[11] = tested on: CCRF-CEM leukemia
[12] = tested on: IGROV1 ovarian
[13] = tested on: OVCAR-3 ovarian
[14] = tested on: UACC-257 melanoma
[15] = tested on: HT29 colon
[16] = tested on: M14 melanoma
[17] = tested on: 786-0 renal
[18] = tested on: KM12 colon
[19] = tested on: MDA-MB-231 breast
[20] = tested on: A549 NSCLC
[21] = tested on: HCT-15 colon
[22] = tested on: ACHN renal
[23] = tested on: PC-3 prostate
[24] = tested on: K-562 leukemia
[25] = tested on: SNB-75 CNS
[26] = tested on: BT-549 breast
[27] = tested on: SK-OV-3 ovarian
[28] = tested on: A498 renal
[29] = tested on: T-47D breast
[30] = tested on: NCI/ADR-RES ovarian
[31] = tested on: COLO 205 colon
[32] = tested on: MDA-MB-435
[33] = tested on: RXF 393 renal
[34] = tested on: LOX IMVI melanoma
[35] = tested on: CAKI-1 renal
[36] = tested on: HCT-116 colon
[37] = tested on: NCI-H226 lung
[38] = tested on: UACC-62 melanoma
[39] = tested on: HS 578T breast
[40] = tested on: SK-MEL-28 melanoma
[41] = tested on: OVCAR-8 ovarian
[42] = tested on: HOP-92 NSCLC
[43] = tested on: SF-295 CNS
[44] = tested on: NCI-H522 lung
[45] = tested on: SF-539 CNS
[46] = tested on: HOP-62 NSCLC
[47] = tested on: SR leukemia
[48] = tested on: SN12C renal
[49] = tested on: SK-MEL-2 melanoma
[50] = tested on: EKVX NSCLC
[51] = tested on: NCI-H460 lung
[52] = tested on: TK-10 renal
[53] = tested on: HL-60(TB) leukemia
[54] = tested on: OVCAR-4 ovarian
[55] = tested on: U251 CNS
[56] = tested on: MCF7 breast

Fc1cc(-c2nnc3n2N=C(c2ccc(Cl)cc2)CS3)c(Cl)cc1Cl
GI50 [1]: 15.5 µM
TGI [1]: 32.7 µM
GI50 [2]: 6.67 µM
TGI [2]: 20.8 µM
GI50 [3]: 13.9 µM
TGI [3]: 33.1 µM
GI50 [4]: 15.9 µM
TGI [4]: 31.1 µM
GI50 [5]: 19.1 µM
TGI [5]: 51.1 µM
GI50 [6]: 3.91 µM
TGI [6]: 15 µM
GI50 [7]: 6.47 µM
TGI [7]: 17.1 µM
GI50 [8]: 1.55 µM
TGI [8]: 3 µM
GI50 [9]: 2.75 µM
TGI [9]: 10.5 µM
GI50 [10]: 2.99 µM
TGI [10]: > 20.5 µM
GI50 [11]: 0.328 µM
TGI [11]: 1.13 µM
GI50 [12]: 4.25 µM
TGI [12]: > 37.6 µM
GI50 [13]: 13.6 µM
TGI [13]: 35.8 µM
GI50 [14]: 14.7 µM
TGI [14]: 28.8 µM
GI50 [15]: 2.71 µM
GI50 [16]: 4.87 µM
TGI [16]: 17.2 µM
GI50 [17]: 2.08 µM
TGI [17]: 3.55 µM
GI50 [18]: 13.1 µM
TGI [18]: 36.4 µM
GI50 [19]: 6.57 µM
TGI [19]: 18.2 µM
GI50 [20]: 18.7 µM
TGI [20]: 41.8 µM
GI50 [21]: 4.82 µM
TGI [21]: 13.8 µM
GI50 [22]: 3.22 µM
TGI [22]: 9.58 µM
GI50 [23]: 16.6 µM
TGI [23]: 31.6 µM
GI50 [24]: 1.57 µM
TGI [24]: > 100 µM
GI50 [25]: 7.33 µM
TGI [25]: 21.9 µM
GI50 [26]: 3.27 µM
TGI [26]: 8.66 µM
GI50 [27]: 22.5 µM
TGI [27]: 51.5 µM
GI50 [28]: 21 µM
TGI [28]: 42.4 µM
GI50 [29]: 2.76 µM
TGI [29]: 20 µM
GI50 [30]: 9.29 µM
TGI [30]: 36.8 µM
GI50 [31]: 7.08 µM
TGI [31]: 49.1 µM
GI50 [32]: 4.97 µM
TGI [32]: 18.4 µM
GI50 [33]: 5.57 µM
TGI [33]: 14.7 µM
GI50 [34]: 1.77 µM
TGI [34]: 3.86 µM
GI50 [35]: 4.61 µM
TGI [35]: 17.4 µM
GI50 [36]: 2.36 µM
TGI [36]: 5.85 µM
GI50 [37]: 17.8 µM
TGI [37]: 40.6 µM
GI50 [38]: 4.3 µM
TGI [38]: 14.9 µM
GI50 [39]: 22.7 µM
TGI [39]: 51.5 µM
GI50 [40]: 7.56 µM
TGI [40]: 34.8 µM
GI50 [41]: 15.3 µM
TGI [41]: 44.3 µM
GI50 [42]: 13.7 µM
TGI [42]: 36.1 µM
GI50 [43]: 17 µM
TGI [43]: 34.7 µM
GI50 [44]: 2.79 µM
GI50 [45]: 3.35 µM
TGI [45]: 11.1 µM
GI50 [46]: 20.1 µM
TGI [46]: 36.4 µM
GI50 [47]: 0.49 µM
TGI [47]: > 100 µM
GI50 [48]: 3.85 µM
TGI [48]: 16.8 µM
GI50 [49]: 27 µM
TGI [49]: > 57.8 µM
GI50 [50]: 23.5 µM
TGI [50]: 48.1 µM
GI50 [51]: 18.2 µM
TGI [51]: 37.4 µM
GI50 [52]: 3.09 µM
TGI [52]: 11.2 µM
GI50 [53]: 0.96 µM
TGI [53]: > 100 µM
GI50 [54]: 7.91 µM
TGI [54]: 32.8 µM
GI50 [55]: 11.4 µM
TGI [55]: 28.4 µM
GI50 [56]: 4.56 µM
TGI [56]: 17.9 µM

From PubChem BioAssay (NCI)
